Our source for the Kd values is publication PMC5610941 (Journal of molecular biology, 2017).

The assay addresses HtpG (Escherichia coli, UniProt P0A6Z3). Description: SAXS radius of gyration titration, closed-state accumulation. It counts as binding.

Chain of HtpG (P0A6Z3 whole entry): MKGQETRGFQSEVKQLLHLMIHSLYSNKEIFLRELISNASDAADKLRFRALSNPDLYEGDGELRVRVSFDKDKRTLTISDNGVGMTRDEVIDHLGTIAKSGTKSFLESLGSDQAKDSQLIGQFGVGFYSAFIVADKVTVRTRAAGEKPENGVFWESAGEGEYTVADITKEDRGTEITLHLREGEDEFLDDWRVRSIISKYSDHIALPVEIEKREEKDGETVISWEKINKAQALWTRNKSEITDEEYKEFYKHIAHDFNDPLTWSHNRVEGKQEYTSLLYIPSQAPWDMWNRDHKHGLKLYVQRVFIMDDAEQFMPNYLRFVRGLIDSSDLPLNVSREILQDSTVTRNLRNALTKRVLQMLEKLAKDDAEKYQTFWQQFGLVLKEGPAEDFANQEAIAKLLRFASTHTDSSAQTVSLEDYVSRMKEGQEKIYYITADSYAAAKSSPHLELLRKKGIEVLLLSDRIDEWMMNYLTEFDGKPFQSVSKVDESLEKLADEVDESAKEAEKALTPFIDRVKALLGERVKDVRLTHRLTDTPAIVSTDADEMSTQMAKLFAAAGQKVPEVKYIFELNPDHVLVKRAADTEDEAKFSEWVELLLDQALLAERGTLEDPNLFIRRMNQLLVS

`Nc1ncnc2c1ncn2[C@@H]1O[C@H](COP(=O)(O)OP(=O)(O)NP(=O)(O)O)[C@@H](O)[C@H]1O` [AMPPNP] came in with a Kd of 12 to 15 µM.

Usually Kd stands for the constant that tells how readily two partners part at equilibrium. Lower therefore signals tighter binding.
